{"source": "paper PMC4760428", "about": "(Angewandte Chemie (International Ed. in English), 2016)", "molecular_target": "WT cyclophilin (Homo sapiens, UniProt P62937)", "sequence (P62937 whole entry)": "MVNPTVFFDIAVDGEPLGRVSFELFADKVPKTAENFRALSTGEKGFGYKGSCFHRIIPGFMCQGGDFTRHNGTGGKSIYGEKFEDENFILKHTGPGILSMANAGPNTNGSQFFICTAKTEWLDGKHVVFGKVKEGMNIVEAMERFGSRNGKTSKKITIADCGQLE", "experiment": "FRET equilibrium binding to wild-type cyclophilin", "note": "Peptide text beside a SMILES is read from it."}
{"smiles": "C[C@H](NS(=O)(=O)c1cccc2c(N(C)C)cccc12)C(=O)N[C@@H](C)C(=O)N1CCC[C@H]1C(=O)N[C@@H](Cc1ccccc1)C(=O)O", "note": "[WT peptide] (HELM PEPTIDE1{[CN(C)c1cccc2c(S(=O)(=O)[*:2])cccc12].A.A.P.F}$$$$V2.0)", "values": [{"measurement": "Kd", "result": "164 ± 32", "unit": "µM"}]}
